Here are results for 4 compounds from patent US20240424477A1, “SYSTEM AND DEVICES FOR REMOVAL OF CONTAMINATES” (priority 2021, published 2024).

The conditions of assay [1]: conventional drinking water treatment, literature; cited from earlier work.
A further assay has as its system MO protein. Put plainly: 19F NMR protein-ligand binding (peak height ratio B). Set-up: species or system Moringa oleifera. Particulars: PFAS 50 mg/L. The procedure: ^19F NMR. ^19F NMR measurements were taken on a Bruker AVANCE III 500 NMR. 3,000 scans were run for each sample with a 1 second relaxation delay. TFMAA was added to each sample as an internal standard. 90% H2O and 10% D20 were used for instrument lock and calibration. PFAS concentrations remained constant at 50 mg/L. […] of sample was used for each run. ^19F NMR spectra were obtained with a spectral width 113636.36 Hz and spectral frequency 470.57 MHz.
Spectrum were analyzed via MestreNova software for phase correction and baseline correction. Peak picking was completed automatically by the software. […] Intensities were normalized by TFMAA peak area at approximately −64.9 ppm. NMR data is included in the Supporting Information. The NMR peak height ratio, B, can be used to determine the relative ranking of binding affinities between protein-ligand complexes. B was calculated using Equation (1)
Where lb is the sum of ligand NMR heights in the presence of protein and lh is the sum of free ligand NMR heights.
^19F NMR. NMR can be used to study protein-ligand interactions by examining changes in peak height, peak width, and chemical shifts. A decrease in peak height indicates the formation of a protein-ligand complex. Previous literature has used ^19F NMR to look at PFAS binding to albumin proteins. In this work, PFAS (ligand) concentrations remain constant while MO protein concentrations were varied.

[2] abbreviates: when protein concentrations increase.

Regarding `[Cl][Fe]([Cl])[Cl]` [FeCl3, ferric chloride], the “removal of PFOA and PFOS by coagulation” value in assay [1] is recorded as “about 20%”.

As to `O=C(O)C(F)(F)C(F)(F)C(F)(F)C(F)(F)C(F)(F)C(F)(F)C(F)(F)F` [PFOA, perfluorooctanoic acid], in the assay with MO protein (setting [2]), the “binding affinity to MO protein (NMR peak height ratio, B)” value is “similar”. `O=S(=O)(O)C(F)(F)C(F)(F)C(F)(F)C(F)(F)C(F)(F)C(F)(F)C(F)(F)C(F)(F)F` [PFOS, perfluorooctanesulfonic acid]: the “binding affinity to MO protein (NMR peak height ratio, B)” value in the assay with MO protein (lower protein concentrations) is reported as “stronger affinity than MO-PFOA”; in the assay on MO protein (setting [2]), “similar”. alum: the “removal of PFOA and PFOS by coagulation” value in assay [1] was “about 20%”.
